Test results published in PMC10968448, “An In Silico and In Vitro Assessment of the Neurotoxicity of Mefloquine” (Biomedicines, 2024).
Counter-ions that a name gives are not always drawn.

Key:
[1] = human, in vivo, cited from earlier work
human BuChE enzyme = human BuChE enzyme (Homo sapiens, UniProt P06276); assay: biochemical; assay type: biochemical
SH-SY5Y cells [2] = assay: Cellular ATP bioluminescence assay (cellular bioenergetics); assay type: cell-based, human; settings: for IC50: Homo sapiens
[3] = biological target: 5-hydroxytryptamine-3 (5-HT3) (serotonin) receptors; set-up: method as in PMID 17502851; settings: non-competitive inhibitor; cited from earlier work
SH-SY5Y cells [4] = assay: Mitochondrial membrane potential (MMP) assay, MitoTracker Green FM; assay type: cell-based, human; settings: 48 h exposure
human (recombinant) AChE = system: human (recombinant) AChE; set-up: method as in PMID 16288931; settings: 10 µM MQ; cited from earlier work
SH-SY5Y cells [5] = system: SH-SY5Y cells; set-up: method as in PMID 22465322; settings: 10 µM MQ, 24 h; cited from earlier work
SH-SY5Y cells [6] = assay: LDH cytotoxicity assay (extracellular LDH); assay type: cell-based, human; settings: for IC50: Homo sapiens
[7] = biological target: human AChE enzyme (recombinant) (Homo sapiens, UniProt P22303); assay: biochemical; assay type: biochemical
Sequence of human AChE enzyme (recombinant) (P22303 32-614): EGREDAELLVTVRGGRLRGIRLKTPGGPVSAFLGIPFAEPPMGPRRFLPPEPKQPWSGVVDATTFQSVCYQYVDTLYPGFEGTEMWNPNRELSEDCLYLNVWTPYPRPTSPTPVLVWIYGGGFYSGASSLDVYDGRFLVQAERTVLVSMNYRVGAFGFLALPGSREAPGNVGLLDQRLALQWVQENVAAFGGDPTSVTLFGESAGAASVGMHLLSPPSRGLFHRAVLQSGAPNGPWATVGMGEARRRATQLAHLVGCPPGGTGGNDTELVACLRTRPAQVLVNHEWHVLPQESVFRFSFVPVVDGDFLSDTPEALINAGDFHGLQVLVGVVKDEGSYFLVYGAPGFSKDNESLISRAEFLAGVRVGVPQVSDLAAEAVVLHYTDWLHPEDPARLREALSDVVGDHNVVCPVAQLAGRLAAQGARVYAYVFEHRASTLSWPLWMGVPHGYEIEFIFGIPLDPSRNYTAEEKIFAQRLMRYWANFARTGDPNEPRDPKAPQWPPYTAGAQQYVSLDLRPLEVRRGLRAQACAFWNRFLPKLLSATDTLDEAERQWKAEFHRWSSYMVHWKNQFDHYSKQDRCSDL

KYSE150 cells = system: KYSE150 cells; set-up: method as in PMID 32850358; settings: 10 µM MQ, KYSE150 oesophageal squamous cell carcinoma cell line; cited from earlier work
SH-SY5Y cells [8] = assay: Flow cytometric assessment of cell death, Annexin V-FITC/PI; assay type: cell-based, human
[9] = system: AChE of electric eel origin; set-up: method as in PMID 3878759; settings: proposed non-competitive inhibitor; cited from earlier work
SH-SY5Y cells [10] = assay: MTT assay of cell metabolic activity/viability; assay type: cell-based, human; settings: for increase of cell metabolic activity (MTT): 6 h, p < 0.0001; for IC50: Homo sapiens, SH-SY5Y cells, non-linear regression
[11] = set-up: method as in PMID 21118921; settings: healthy male and female volunteers; cited from earlier work
SH-SY5Y cells [12] = assay: ROS generation, DCFDA assay; assay type: cell-based, human; settings: 10 mM NAC with MQ 0.1–10 µM, 3 h
[13] = set-up: method as in PMID 32639233; settings: overdose; cited from earlier work
[14] = SH-SY5Y cells, 6 h exposure, non-linear regression
[15] = SH-SY5Y cells, 24 h exposure, non-linear regression
[16] = SH-SY5Y cells, 48 h exposure, non-linear regression

Sequence of human BuChE enzyme (P06276 29-602): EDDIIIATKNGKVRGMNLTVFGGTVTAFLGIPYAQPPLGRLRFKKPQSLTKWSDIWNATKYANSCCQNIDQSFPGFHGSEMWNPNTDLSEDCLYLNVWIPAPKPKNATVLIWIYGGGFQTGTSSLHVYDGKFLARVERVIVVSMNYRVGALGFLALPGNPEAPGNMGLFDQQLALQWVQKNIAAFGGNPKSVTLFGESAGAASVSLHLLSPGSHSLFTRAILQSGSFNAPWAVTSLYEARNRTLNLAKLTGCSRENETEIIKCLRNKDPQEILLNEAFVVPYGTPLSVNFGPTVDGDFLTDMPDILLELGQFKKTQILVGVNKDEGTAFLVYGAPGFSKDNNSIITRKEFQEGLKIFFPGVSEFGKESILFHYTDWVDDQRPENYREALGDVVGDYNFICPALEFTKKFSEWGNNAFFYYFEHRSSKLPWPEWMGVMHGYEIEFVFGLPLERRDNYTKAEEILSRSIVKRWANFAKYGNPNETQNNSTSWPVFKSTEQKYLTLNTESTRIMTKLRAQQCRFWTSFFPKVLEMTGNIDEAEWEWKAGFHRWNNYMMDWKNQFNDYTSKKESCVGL

## O[C@H](c1cc(C(F)(F)F)nc2c(C(F)(F)F)cccc12)[C@@H]1CCCCN1 (racemic) [MQ, (R*,S*)-(+/−)-α-2-Piperidyl-2,8-bis(trifluoromethyl)quinoline-4-methanol monohydrochloride]
[1]; po
  time of peak concentration in the blood: 7 to 24 h
[1]
  terminal half-life: 14 to 15 days
Human BuChE enzyme; 100 µM MQ
  inhibition at 100 µM: 18%
Human BuChE enzyme; MQ 1–100 µM assayed
  concentration from which BuChE activity is significantly reduced: ≥ 25 µM
Human BuChE enzyme; MQ exposures of between 1 and 25 µM
  reduction in BuChE enzymatic activity: approximately 10%
SH-SY5Y cells [2]; 6 h exposure
  concentration from which cellular ATP is significantly reduced: ≥ 1 µM
SH-SY5Y cells [2]; 48 h exposure
  concentration from which cellular ATP is significantly reduced: ≥ 0.1 µM
SH-SY5Y cells [2]; SH-SY5Y, 24 h exposure
  IC50: ~6 µM
SH-SY5Y cells [2]; [14]
  IC50: 10.2 µM
SH-SY5Y cells [2]; [15]
  IC50: 4.73 µM
SH-SY5Y cells [2]; [16]
  IC50: 3.19 µM
[3]
  IC50: ~10 µM
SH-SY5Y cells [4]
  concentration at which the MMP is significantly altered: 10 µM
Human (recombinant) AChE
  inhibition of human (recombinant) AChE: < 10%
SH-SY5Y cells [5]
  reduction of cell viability (MTT): approximately 20%
SH-SY5Y cells [6]; 0.1 to 10 µM MQ, except 10 µM after 48 h
  extracellular LDH production: no significant LDH production
SH-SY5Y cells [6]; 25, 50 and 100 µM MQ
  extracellular LDH levels: dramatic increase
SH-SY5Y cells [6]; SH-SY5Y, 24 h exposure
  IC50: ~16 µM
SH-SY5Y cells [6]; [14]
  IC50: 26.2 µM
SH-SY5Y cells [6]; [15]
  IC50: 16.2 µM
SH-SY5Y cells [6]; [16]
  IC50: 11.7 µM
[7]; 1 µM MQ
  inhibition at 1 µM: 9.8%
[7]; 10 µM MQ, significant
  inhibition at 10 µM: 20.5%
[7]; MQ 1–100 µM assayed
  concentration from which AChE activity is significantly reduced: ≥ 10 µM
KYSE150 cells
  effect on cell number: reduces the cell number
SH-SY5Y cells [8]; 6 h exposure
  concentration at which increase in apoptotic cells reached significance: 50 µM
SH-SY5Y cells [8]; 24 h exposure
  concentration at which increase in apoptotic cells reached significance: 20 µM
[9]
  inhibition of electric eel AChE: weak inhibitor
SH-SY5Y cells [10]; 1 µM MQ
  increase of cell metabolic activity (MTT): 27%
SH-SY5Y cells [10]; 10 µM MQ
  increase of cell metabolic activity (MTT): approximately 29%
SH-SY5Y cells [10]; 10 µM MQ, 48 h, p = 0.024
  reduction of cell metabolic activity (MTT): 13.6%
SH-SY5Y cells [10]; 48 h exposure
  threshold concentration for significant reduction in viability: ~10 µM
  IC50: 14.2 µM
SH-SY5Y cells [10]; 6 h exposure
  IC50: 67.1 µM
SH-SY5Y cells [10]; 24 h exposure
  IC50: 23.9 µM
SH-SY5Y cells [10]; all time points examined (6, 24, 48 h)
  threshold concentration for toxicity to neuroblastoma cells (MTT): ≥ 25 µM

## O[C@H](c1cc(C(F)(F)F)nc2c(C(F)(F)F)cccc12)[C@@H]1CCCCN1 (single isomer, unassigned) [+-MQ enantiomer]
[11]
  safety and tolerability compared with the racemate: more favourable profile for mood and sleep

## CC(=O)N[C@@H](CS)C(=O)O [NAC, N-acetylcysteine]
SH-SY5Y cells [12]
  effect of antioxidant co-treatment on MQ-induced ROS production: significantly inhibited MQ-induced ROS production

## CCN(CC)CCCC(C)Nc1ccnc2cc(Cl)ccc12 (stereo not drawn) [chloroquine]
[13]
  whole blood concentration associated with 1% mortality: 13.5 µM
